{"source": "paper PMC9628888", "about": "“Engineering of Sulfolobus acidocaldarius for Hemicellulosic Biomass Utilization” (Journal of Microbiology and Biotechnology, 2022)", "biological_target": "T1, β-xylosidase (SSO3032) (Saccharolobus solfataricus, UniProt Q97UI4)", "T1 construct": "full gene cloned in pSVAmalFX-Nt6H (His6 tag)", "T1 sequence (Q97UI4 entry or part of it)": "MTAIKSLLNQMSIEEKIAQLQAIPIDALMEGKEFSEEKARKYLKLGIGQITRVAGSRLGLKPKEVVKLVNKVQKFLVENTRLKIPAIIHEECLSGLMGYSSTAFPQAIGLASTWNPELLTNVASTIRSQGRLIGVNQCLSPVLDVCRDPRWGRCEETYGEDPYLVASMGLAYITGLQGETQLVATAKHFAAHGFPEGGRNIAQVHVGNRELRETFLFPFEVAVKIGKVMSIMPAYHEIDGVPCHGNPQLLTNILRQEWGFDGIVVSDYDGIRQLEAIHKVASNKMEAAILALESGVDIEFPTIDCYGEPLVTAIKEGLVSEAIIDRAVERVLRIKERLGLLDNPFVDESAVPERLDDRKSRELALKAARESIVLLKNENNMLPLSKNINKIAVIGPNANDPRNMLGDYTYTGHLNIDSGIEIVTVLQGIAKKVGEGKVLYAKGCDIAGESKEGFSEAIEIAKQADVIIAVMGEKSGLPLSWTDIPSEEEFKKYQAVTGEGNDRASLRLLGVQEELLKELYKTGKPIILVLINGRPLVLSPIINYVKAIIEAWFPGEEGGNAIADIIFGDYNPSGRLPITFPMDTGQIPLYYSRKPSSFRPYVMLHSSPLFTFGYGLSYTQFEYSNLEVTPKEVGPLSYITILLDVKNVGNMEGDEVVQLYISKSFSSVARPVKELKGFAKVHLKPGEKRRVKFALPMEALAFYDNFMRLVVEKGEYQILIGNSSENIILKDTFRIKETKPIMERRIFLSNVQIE", "assay": "colorimetric pNP release at […] nm", "type": "biochemical", "details": "1 mM pNPX, 50 mM sodium acetate pH 6.0, 90 °C, 10 min"}
{"compound": "O=[N+]([O-])c1ccc(O[C@@H]2OC[C@@H](O)[C@H](O)[C@H]2O)cc1", "note": "[pNPX]", "values": [{"measurement": "colorimetric pNP release at 420 nm", "value": "performed with 4-nitrophenol-β-D-xylopyranoside (pNPX) as a substrate"}]}
